# Experimental data as given in the supplement of paper PMC11061612.
# Tests used:
# [1] = test system: LS-123 (Colorectal Carcinoma); experiment: Bliss excess, mean over the matrix (fraction); higher = more synergy
# Outline: (§1)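 Bliss excess equals the observed combination effect minus the expected value EA + EB − EA·EB, where EA and EB are the effects of each agent alone. Combination Emax is the second-highest inhibition within the matrix. Inhibition was scaled from CellTiter-Glo 2.0 luminescence, with 0 set by vehicle wells and 1 by blank wells, after 72 hours of two-drug dosing of cells plated in 1536-well plates.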
# [2] = test system: OVCAR-5 (Ovarian Carcinoma); experiment: as above
# Outline: as §1
# [3] = test system: SAS (Oral Cavity Carcinoma); experiment: as above
# Outline: as §1
# EW-11 (Ewing's Sarcoma) [4] = experiment: as above
# Outline: as §1
# [5] = test system: TGBC1TKB (Biliary Tract Carcinoma); experiment: as above
# Outline: as §1
# MPP-89 (Mesothelioma) [6] = experiment: as above
# Outline: as §1
# [7] = test system: SNU-449 (Hepatocellular Carcinoma); experiment: as above
# Outline: as §1
# [8] = test system: LNZTA3WT4 (Low Grade Glioma); experiment: as above
# Outline: as §1
# [9] = test system: NCI-H524 (Small Cell Lung Carcinoma); experiment: as above
# Outline: as §1
# GAMG (Glioblastoma) [10] = experiment: as above
# Outline: as §1
# [11] = test system: YAPC (Pancreatic Carcinoma); experiment: as above
# Outline: as §1
# [12] = test system: HuCCT1 (Biliary Tract Carcinoma); experiment: as above
# Outline: as §1
# [13] = test system: WSU-NHL (B-Cell Non-Hodgkin's Lymphoma); experiment: as above
# Outline: as §1
# [14] = test system: KYAE-1 (Esophageal Adenocarcinoma); experiment: as above
# Outline: as §1
# [15] = test system: ESS-1 (Other Solid Carcinomas); experiment: as above
# Outline: as §1
# A673 (Ewing's Sarcoma) [16] = experiment: as above
# Outline: as §1
# [17] = test system: SW1710 (Bladder Carcinoma); experiment: as above
# Outline: as §1
# [18] = test system: HH (T-Cell Non-Hodgkin's Lymphoma); experiment: as above
# Outline: as §1
# KS-1 (Glioblastoma) [19] = experiment: as above
# Outline: as §1
# CAL-72 (Osteosarcoma) [20] = experiment: as above
# Outline: as §1
# [21] = test system: SNU-16 (Gastric Carcinoma); experiment: as above
# Outline: as §1
# LOXIMVI (Melanoma) [22] = experiment: as above
# Outline: as §1
# [23] = test system: BE-13 (T-Lymphoblastic Leukemia); experiment: as above
# Outline: as §1
# [24] = test system: LS-123 (Colorectal Carcinoma); experiment: combination Emax (second highest fraction inhibited in the dose matrix, 72 h); higher = more inhibition; extreme values may be limits of the assay
# Outline: as §1
# [25] = test system: OVCAR-5 (Ovarian Carcinoma); experiment: as above
# Outline: as §1
# [26] = test system: SAS (Oral Cavity Carcinoma); experiment: as above
# Outline: as §1
# EW-11 (Ewing's Sarcoma) [27] = experiment: as above
# Outline: as §1
# [28] = test system: TGBC1TKB (Biliary Tract Carcinoma); experiment: as above
# Outline: as §1
# MPP-89 (Mesothelioma) [29] = experiment: as above
# Outline: as §1
# [30] = test system: SNU-449 (Hepatocellular Carcinoma); experiment: as above
# Outline: as §1
# [31] = test system: LNZTA3WT4 (Low Grade Glioma); experiment: as above
# Outline: as §1
# [32] = test system: NCI-H524 (Small Cell Lung Carcinoma); experiment: as above
# Outline: as §1
# GAMG (Glioblastoma) [33] = experiment: as above
# Outline: as §1
# [34] = test system: YAPC (Pancreatic Carcinoma); experiment: as above
# Outline: as §1
# [35] = test system: HuCCT1 (Biliary Tract Carcinoma); experiment: as above
# Outline: as §1
# [36] = test system: WSU-NHL (B-Cell Non-Hodgkin's Lymphoma); experiment: as above
# Outline: as §1
# [37] = test system: KYAE-1 (Esophageal Adenocarcinoma); experiment: as above
# Outline: as §1
# [38] = test system: ESS-1 (Other Solid Carcinomas); experiment: as above
# Outline: as §1
# A673 (Ewing's Sarcoma) [39] = experiment: as above
# Outline: as §1
# [40] = test system: SW1710 (Bladder Carcinoma); experiment: as above
# Outline: as §1
# [41] = test system: HH (T-Cell Non-Hodgkin's Lymphoma); experiment: as above
# Outline: as §1
# KS-1 (Glioblastoma) [42] = experiment: as above
# Outline: as §1
# CAL-72 (Osteosarcoma) [43] = experiment: as above
# Outline: as §1
# [44] = test system: SNU-16 (Gastric Carcinoma); experiment: as above
# Outline: as §1
# LOXIMVI (Melanoma) [45] = experiment: as above
# Outline: as §1
# [46] = test system: BE-13 (T-Lymphoblastic Leukemia); experiment: as above
# Outline: as §1
compound,measurement,setting,value
"CC1(C)CCC(CN2CCN(c3ccc(C(=O)NS(=O)(=O)c4ccc(NCC5CCOCC5)c([N+](=O)[O-])c4)c(Oc4cnc5[nH]ccc5c4)c3)CC2)=C(c2ccc(Cl)cc2)C1 [Venetoclax] + CS(=O)(=O)CCNCc1ccc(-c2ccc3ncnc(Nc4ccc(OCc5cccc(F)c5)c(Cl)c4)c3c2)o1 [Lapatinib] (first compound max 1 µM, 7x7, partner max 10 µM)",Bliss excess,[1],-0.0595
same,Bliss excess,[2],-0.0479
same,Bliss excess,[3],-0.059
same,Bliss excess,EW-11 (Ewing's Sarcoma) [4],0.0195
same,Bliss excess,[5],-0.0308
same,Bliss excess,MPP-89 (Mesothelioma) [6],-0.0532
same,Bliss excess,[7],-0.0572
same,Bliss excess,[8],-0.0178
same,Bliss excess,[9],-0.0393
same,Bliss excess,GAMG (Glioblastoma) [10],-0.0231
same,Bliss excess,[11],-0.012
same,Bliss excess,[12],-0.0803
same,Bliss excess,[13],0.0482
same,Bliss excess,[14],0.0085
same,Bliss excess,[15],0.0298
same,Bliss excess,A673 (Ewing's Sarcoma) [16],-0.0426
same,Bliss excess,[17],-0.0415
same,Bliss excess,[18],-0.0178
same,Bliss excess,KS-1 (Glioblastoma) [19],-0.0411
same,Bliss excess,CAL-72 (Osteosarcoma) [20],-0.0527
same,Bliss excess,[21],0.0168
same,Bliss excess,LOXIMVI (Melanoma) [22],0.007
same,Bliss excess,[23],-0.0101
same,combination Emax,[24],0.267
same,combination Emax,[25],0.308
same,combination Emax,[26],0.392
same,combination Emax,EW-11 (Ewing's Sarcoma) [27],0.263
same,combination Emax,[28],0.134
same,combination Emax,MPP-89 (Mesothelioma) [29],0.136
same,combination Emax,[30],0.445
same,combination Emax,[31],0.208
same,combination Emax,[32],0.108
same,combination Emax,GAMG (Glioblastoma) [33],0.284
same,combination Emax,[34],0.129
same,combination Emax,[35],0.397
same,combination Emax,[36],0.798
same,combination Emax,[37],0.758
same,combination Emax,[38],0.669
same,combination Emax,A673 (Ewing's Sarcoma) [39],0.207
same,combination Emax,[40],0.18
same,combination Emax,[41],0.129
same,combination Emax,KS-1 (Glioblastoma) [42],0.089
same,combination Emax,CAL-72 (Osteosarcoma) [43],0.646
same,combination Emax,[44],0.399
same,combination Emax,LOXIMVI (Melanoma) [45],0.426
same,combination Emax,[46],0.854
